“Also recorded” adds a separate entry of the source. Marks after values point to notes of the source that are not given here.
How the values were obtained:
[1] = test system: Monosodium Iodoacetate-induced Osteoarthritis in Rat; test: Monosodium iodoacetate-induced osteoarthritis in rat model of cartilage damage (MIA Rat); format: in vivo, male Wistar rats
[2] = cited from earlier work
[3] = 4 weeks study, subcutaneously via osmotic pumps, 10 mg/kg/day
[4] = 4 weeks study, subcutaneously via osmotic pumps, 30 mg/kg/day
[5] = 4 weeks study, subcutaneously via osmotic pumps, 100 mg/kg/day

O=C(O)[C@@H]1C[C@@H]2CCCC[C@@H]2N1 [[2(S), 3a(S), 7a(S)]-2,3,3a,4,5,6,7,7a-octahydroindol-2-carboxylic acid]
degree of structural damage to the cartilage ([1]; 10 mg/kg PO, BID, 4 weeks post-MIA): significantly decreased | degree of structural damage to the cartilage ([1]; 30 mg/kg PO, BID, 4 weeks post-MIA): significantly decreased | IJFL (Inhibition of Joint Function Limitation) (% +/− SEM) ([1]; 2 weeks study, subcutaneously via osmotic pumps, 90 mg/kg/day, p < 0.05 versus vehicle): 85 +/− 3% | SDCES (Significant Decrease In Cartilage Erosion Severity) [1, 3]: No | SIJWHLE (Significant Increase in Joints Without Hind Limb Erosion) [1, 3]: No | IJFL (Inhibition of Joint Function Limitation) (% +/− SEM) ([1]; 4 weeks study, subcutaneously via osmotic pumps, 10 mg/kg/day, Not statistically significant): 28 +/− 14^e % | SDCES (Significant Decrease In Cartilage Erosion Severity) [1, 4]: No | SIJWHLE (Significant Increase in Joints Without Hind Limb Erosion) [1, 4]: No | IJFL (Inhibition of Joint Function Limitation) (% +/− SEM) ([1]; 4 weeks study, subcutaneously via osmotic pumps, 30 mg/kg/day, p < 0.05 versus vehicle): 94 +/− 10% | SDCES (Significant Decrease In Cartilage Erosion Severity) [1, 5]: No | SIJWHLE (Significant Increase in Joints Without Hind Limb Erosion) [1, 5]: No | IJFL (Inhibition of Joint Function Limitation) (% +/− SEM) ([1]; 4 weeks study, subcutaneously via osmotic pumps, 100 mg/kg/day, p < 0.05 versus vehicle): 78 +/− 3% | inhibiting cartilage damage and treating osteoarthritis, from analysis of proteoglycan loss ([1]; MIA Rat data that are expected): effective | joint pain ([1]; all doses, 3 to 30 mg/kg PO, BID, 4 weeks post-MIA): significantly decreased joint pain | preventing or treating cartilage damage ([1]; conclusion from MIA Rat data of Tables 1 and 2): effective | joint function limitations as defined by a reduction in differential hind-limb weight bearing ([1]; dosed orally two times per day): decrease joint function limitations | SIJWHLE (Significant Increase in Joints Without Hind Limb Erosion) ([1]; four week study, oral, two times per day, 3 mg/kg per dose, Cochran-Armitage Trend test): No | SDCES (Significant Decrease In Cartilage Erosion Severity) ([1]; four week study, oral, two times per day, 3 mg/kg per dose, Ridit Analysis): No | IJFL (Inhibition of Joint Function Limitation) (% +/− SEM) ([1]; four week study, oral, two times per day, 3 mg/kg per dose, p < 0.05 versus vehicle): 62 +/− 6% | SIJWHLE (Significant Increase in Joints Without Hind Limb Erosion) ([1]; four week study, oral, two times per day, 10 mg/kg per dose, Cochran-Armitage Trend test, actual p = 0.046): Yes^f | SDCES (Significant Decrease In Cartilage Erosion Severity) ([1]; four week study, oral, two times per day, 10 mg/kg per dose, Ridit Analysis, 10 mg/kg): significantly decrease cartilage erosion severity and No | IJFL (Inhibition of Joint Function Limitation) (% +/− SEM) ([1]; four week study, oral, two times per day, 10 mg/kg per dose, p < 0.05 versus vehicle): 70 +/− 9% | SIJWHLE (Significant Increase in Joints Without Hind Limb Erosion) ([1]; four week study, oral, two times per day, 30 mg/kg per dose, Cochran-Armitage Trend test, actual p = 0.020): Yes^e | IJFL (Inhibition of Joint Function Limitation) (% +/− SEM) ([1]; four week study, oral, two times per day, 30 mg/kg per dose, p < 0.05 versus vehicle): 83 +/− 7% | SDCES (Significant Decrease In Cartilage Erosion Severity) ([1]; four week study, oral, two times per day, 30 mg/kg per dose, p < 0.05 versus vehicle (Ridit Analysis), actual p = 0.021, 30 mg/kg): significantly decrease cartilage erosion severity; also recorded: Yes^d

Cc1onc(-c2ccccc2)c1-c1ccc(S(N)(=O)=O)cc1 [valdecoxib, 4-(5-methyl-3-phenyl-4-isoxazolyl)-benzenesulfonamide]
tolerability ([2]; combined analysis of various clinical studies): well tolerated | overall upper gastrointestinal safety profile (ulcers, perforations, obstructions and GI bleeds) ([2]; versus conventional NSAIDs studied such as ibuprofen, diclofenac and naproxen): significantly better

— patent publication US20030166706A1, “Method of treating osteoarthritis” (priority 2002, published 2003)
